# Reference: US10131652B2, “Pyrimidinyloxy benzene derivatives as herbicides” (E. I. DU PONT DE NEMOURS AND COMPANY, priority 2014, dated 2018)
# Read-outs that look alike come from different tables or passages of the source.
# Legend:
# Test in all cases: Test E pre-/postemergence plant response
# Format in all cases: in vivo
# [1] = tested on: bluegrass (annual bluegrass, Poa annua); settings: scale 0 to 100, read-out: Plant response rating, Bluegrass; for pest or weed control at 16 g/ha: 16 g ai/ha; for pest or weed control at 31 g/ha: 31 g ai/ha; for pest or weed control at 62 g/ha: 62 g ai/ha; for pest or weed control at 125 g/ha: 125 g ai/ha
# Description: (§1) Seeds of plant species selected from bluegrass (annual bluegrass, Poa annua), blackgrass (Alopecurus myosuroides), canarygrass (Phalaris minor), chickweed (common chickweed, Stellaria media), galium (catchweed bedstraw, Galium aparine), downy bromegrass (Bromus tectorum), field poppy (Papaver rhoeas), field violet (Viola arvensis), green foxtail (Setaria viridis), deadnettle (henbit deadnettle, Lamium amplexicaule), Italian ryegrass (Lolium multiflorum), kochia (Kochia scoparia), lambsquarters (Chenopodium album), oilseed rape (Brassica napus), pigweed (Amaranthus retroflexus), Russian thistle (Salsola iberica), chamomile (scentless chamomile, Matricaria inodora), speedwell (bird's-eye speedwell, Veronica persica), spring barley (Hordeum vulgare), spring wheat (Triticum aestivum), wild buckwheat (Polygonum convolvulus), wild mustard (Sinapis arvensis), wild oat (Avena fatua), wild radish (Raphanus raphanistrum), windgrass (Apera spica-venti), winter barley (Hordeum vulgare), and winter wheat (Triticum aestivum) were planted into a silt loam soil and treated preemergence with test chemicals formulated in a non-phytotoxic solvent mixture which included a surfactant. At the same time, these species were planted in pots containing Redi-Earth® planting medium (Scotts Company, 14111 Scottslawn Road, Marysville, Ohio 43041) comprising spaghnum peat moss, vermiculite, wetting agent and starter nutrients and treated with postemergence applications of the test chemicals formulated in the same manner. Plants ranged in height from 2 to 18 cm (1- to 4-leaf stage).
# (§2) Treated plants and controls were maintained in a controlled growth environment for 7 to 21 days after which time all species were compared to controls and visually evaluated. Plant response ratings, summarized in Table E, are based on a scale of 0 to 100 where 0 is no effect and 100 is complete control. A dash (-) response means no test result.
# [2] = tested on: deadnettle (henbit deadnettle, Lamium amplexicaule); settings: scale 0 to 100, read-out: Plant response rating, Deadnettle; for pest or weed control at 16 g/ha: 16 g ai/ha; for pest or weed control at 31 g/ha: 31 g ai/ha; for pest or weed control at 62 g/ha: 62 g ai/ha; for pest or weed control at 125 g/ha: 125 g ai/ha
# Description: as §1, §2
# [3] = tested on: field violet (Viola arvensis); settings: scale 0 to 100, read-out: Plant response rating, Field Violet; for pest or weed control at 16 g/ha: 16 g ai/ha; for pest or weed control at 31 g/ha: 31 g ai/ha; for pest or weed control at 62 g/ha: 62 g ai/ha; for pest or weed control at 125 g/ha: 125 g ai/ha
# Description: as §1, §2
# [4] = tested on: galium (catchweed bedstraw, Galium aparine); settings: scale 0 to 100, read-out: Plant response rating, Galium; for pest or weed control at 16 g/ha: 16 g ai/ha; for pest or weed control at 31 g/ha: 31 g ai/ha; for pest or weed control at 62 g/ha: 62 g ai/ha; for pest or weed control at 125 g/ha: 125 g ai/ha
# Description: as §1, §2
# [5] = tested on: green foxtail (Setaria viridis); settings: scale 0 to 100, read-out: Plant response rating, Foxtail, Green; for pest or weed control at 16 g/ha: 16 g ai/ha; for pest or weed control at 31 g/ha: 31 g ai/ha; for pest or weed control at 62 g/ha: 62 g ai/ha; for pest or weed control at 125 g/ha: 125 g ai/ha
# Description: as §1, §2
# [6] = tested on: lambsquarters (Chenopodium album); settings: scale 0 to 100, read-out: Plant response rating, Lambsquarters; for pest or weed control at 16 g/ha: 16 g ai/ha; for pest or weed control at 31 g/ha: 31 g ai/ha; for pest or weed control at 62 g/ha: 62 g ai/ha; for pest or weed control at 125 g/ha: 125 g ai/ha
# Description: as §1, §2
# [7] = tested on: oilseed rape (Brassica napus); settings: scale 0 to 100, read-out: Plant response rating, Oilseed Rape; for plant injury at 16 g/ha: 16 g ai/ha; for plant injury at 31 g/ha: 31 g ai/ha; for plant injury at 62 g/ha: 62 g ai/ha; for plant injury at 125 g/ha: 125 g ai/ha
# Description: as §1, §2
# [8] = tested on: spring wheat (Triticum aestivum); settings: scale 0 to 100, read-out: Plant response rating, Wheat, Spring; for plant injury at 16 g/ha: 16 g ai/ha; for plant injury at 62 g/ha: 62 g ai/ha; for plant injury at 125 g/ha: 125 g ai/ha
# Description: as §1, §2
# wild oat (Avena fatua) = settings: scale 0 to 100, read-out: Plant response rating, Oat, Wild; for pest or weed control at 16 g/ha: 16 g ai/ha; for pest or weed control at 31 g/ha: 31 g ai/ha; for pest or weed control at 62 g/ha: 62 g ai/ha; for pest or weed control at 125 g/ha: 125 g ai/ha
# Description: as §1, §2
# [9] = tested on: wild radish (Raphanus raphanistrum); settings: scale 0 to 100, read-out: Plant response rating, Radish, Wild; for pest or weed control at 16 g/ha: 16 g ai/ha; for pest or weed control at 31 g/ha: 31 g ai/ha; for pest or weed control at 62 g/ha: 62 g ai/ha; for pest or weed control at 125 g/ha: 125 g ai/ha
# Description: as §1, §2
# [10] = tested on: winter wheat (Triticum aestivum); settings: scale 0 to 100, read-out: Plant response rating, Wheat, Winter; for plant injury at 16 g/ha: 16 g ai/ha; for plant injury at 62 g/ha: 62 g ai/ha; for plant injury at 125 g/ha: 125 g ai/ha
# Description: as §1, §2
# [11] = post-emergence, 31 g ai/ha, Postemergence
compound,measurement,setting,value
"FC(F)c1cc(-c2ccccc2Oc2ncc(Cl)cn2)on1 [Compound 53, 5-chloro-2-[2-[3-(difluoromethyl)-5-isoxazolyl]phenoxy]pyrimidine]",pest or weed control at 16 g/ha,"[1]; post-emergence, Postemergence",0%
same,pest or weed control at 31 g/ha,"[1]; post-emergence, Postemergence",0%
same,pest or weed control at 62 g/ha,"[1]; post-emergence, Postemergence",5%
same,pest or weed control at 125 g/ha,"[1]; post-emergence, Postemergence",5%
same,pest or weed control at 16 g/ha,"[1]; pre-emergence, Preemergence",10%
same,pest or weed control at 31 g/ha,"[1]; pre-emergence, Preemergence",10%
same,pest or weed control at 62 g/ha,"[1]; pre-emergence, Preemergence",20%
same,pest or weed control at 125 g/ha,"[1]; pre-emergence, Preemergence",25%
same,pest or weed control at 16 g/ha,"[2]; post-emergence, Postemergence",20%
same,pest or weed control at 31 g/ha,"[2]; post-emergence, Postemergence",30%
same,pest or weed control at 62 g/ha,"[2]; post-emergence, Postemergence",60%
same,pest or weed control at 125 g/ha,"[2]; post-emergence, Postemergence",65%
same,pest or weed control at 16 g/ha,"[2]; pre-emergence, Preemergence",10%
same,pest or weed control at 31 g/ha,"[2]; pre-emergence, Preemergence",10%
same,pest or weed control at 62 g/ha,"[2]; pre-emergence, Preemergence",50%
same,pest or weed control at 125 g/ha,"[2]; pre-emergence, Preemergence",65%
same,pest or weed control at 16 g/ha,"[3]; post-emergence, Postemergence",25%
same,pest or weed control at 31 g/ha,"[3]; post-emergence, Postemergence",50%
same,pest or weed control at 62 g/ha,"[3]; post-emergence, Postemergence",70%
same,pest or weed control at 125 g/ha,"[3]; post-emergence, Postemergence",70%
same,pest or weed control at 16 g/ha,"[3]; pre-emergence, Preemergence",50%
same,pest or weed control at 31 g/ha,"[3]; pre-emergence, Preemergence",25%
same,pest or weed control at 62 g/ha,"[3]; pre-emergence, Preemergence",60%
same,pest or weed control at 125 g/ha,"[3]; pre-emergence, Preemergence",100%
same,pest or weed control at 16 g/ha,"[4]; post-emergence, Postemergence",75%
same,pest or weed control at 31 g/ha,"[4]; post-emergence, Postemergence",75%
same,pest or weed control at 62 g/ha,"[4]; post-emergence, Postemergence",75%
same,pest or weed control at 125 g/ha,"[4]; post-emergence, Postemergence",75%
same,pest or weed control at 16 g/ha,"[4]; pre-emergence, Preemergence",25%
same,pest or weed control at 31 g/ha,"[4]; pre-emergence, Preemergence",30%
same,pest or weed control at 62 g/ha,"[4]; pre-emergence, Preemergence",60%
same,pest or weed control at 125 g/ha,"[4]; pre-emergence, Preemergence",100%
same,pest or weed control at 16 g/ha,"[5]; post-emergence, Postemergence",10%
same,pest or weed control at 31 g/ha,"[5]; post-emergence, Postemergence",10%
same,pest or weed control at 62 g/ha,"[5]; post-emergence, Postemergence",10%
same,pest or weed control at 125 g/ha,"[5]; post-emergence, Postemergence",25%
same,pest or weed control at 16 g/ha,"[5]; pre-emergence, Preemergence",10%
same,pest or weed control at 31 g/ha,"[5]; pre-emergence, Preemergence",10%
same,pest or weed control at 62 g/ha,"[5]; pre-emergence, Preemergence",20%
same,pest or weed control at 125 g/ha,"[5]; pre-emergence, Preemergence",55%
same,pest or weed control at 16 g/ha,"[6]; post-emergence, Postemergence",65%
same,pest or weed control at 31 g/ha,"[6]; post-emergence, Postemergence",70%
same,pest or weed control at 62 g/ha,"[6]; post-emergence, Postemergence",65%
same,pest or weed control at 125 g/ha,"[6]; post-emergence, Postemergence",75%
same,pest or weed control at 16 g/ha,"[6]; pre-emergence, Preemergence",60%
same,pest or weed control at 31 g/ha,"[6]; pre-emergence, Preemergence",75%
same,pest or weed control at 62 g/ha,"[6]; pre-emergence, Preemergence",100%
same,pest or weed control at 125 g/ha,"[6]; pre-emergence, Preemergence",100%
same,plant injury at 16 g/ha,"[7]; post-emergence, Postemergence",70%
same,plant injury at 31 g/ha,"[7]; post-emergence, Postemergence",75%
same,plant injury at 62 g/ha,"[7]; post-emergence, Postemergence",80%
same,plant injury at 125 g/ha,"[7]; post-emergence, Postemergence",80%
same,plant injury at 16 g/ha,"[7]; pre-emergence, Preemergence",50%
same,plant injury at 31 g/ha,"[7]; pre-emergence, Preemergence",75%
same,plant injury at 62 g/ha,"[7]; pre-emergence, Preemergence",100%
same,plant injury at 125 g/ha,"[7]; pre-emergence, Preemergence",100%
same,plant injury at 16 g/ha,"[8]; post-emergence, Postemergence",10%
same,plant injury at 31 g/ha,[8]; [11],10%
same,plant injury at 62 g/ha,"[8]; post-emergence, Postemergence",20%
same,plant injury at 125 g/ha,"[8]; post-emergence, Postemergence",35%
same,plant injury at 16 g/ha,"[8]; pre-emergence, Preemergence",5%
same,plant injury at 62 g/ha,"[8]; pre-emergence, Preemergence",10%
same,plant injury at 125 g/ha,"[8]; pre-emergence, Preemergence",10%
same,pest or weed control at 16 g/ha,"wild oat (Avena fatua); post-emergence, Postemergence",5%
same,pest or weed control at 31 g/ha,"wild oat (Avena fatua); post-emergence, Postemergence",5%
same,pest or weed control at 62 g/ha,"wild oat (Avena fatua); post-emergence, Postemergence",10%
same,pest or weed control at 125 g/ha,"wild oat (Avena fatua); post-emergence, Postemergence",25%
same,pest or weed control at 16 g/ha,"wild oat (Avena fatua); pre-emergence, Preemergence",0%
same,pest or weed control at 31 g/ha,"wild oat (Avena fatua); pre-emergence, Preemergence",0%
same,pest or weed control at 62 g/ha,"wild oat (Avena fatua); pre-emergence, Preemergence",10%
same,pest or weed control at 125 g/ha,"wild oat (Avena fatua); pre-emergence, Preemergence",25%
same,pest or weed control at 16 g/ha,"[9]; post-emergence, Postemergence",60%
same,pest or weed control at 31 g/ha,"[9]; post-emergence, Postemergence",60%
same,pest or weed control at 62 g/ha,"[9]; post-emergence, Postemergence",90%
same,pest or weed control at 125 g/ha,"[9]; post-emergence, Postemergence",90%
same,pest or weed control at 16 g/ha,"[9]; pre-emergence, Preemergence",50%
same,pest or weed control at 31 g/ha,"[9]; pre-emergence, Preemergence",70%
same,pest or weed control at 62 g/ha,"[9]; pre-emergence, Preemergence",100%
same,pest or weed control at 125 g/ha,"[9]; pre-emergence, Preemergence",90%
same,plant injury at 16 g/ha,"[10]; post-emergence, Postemergence",5%
same,plant injury at 31 g/ha,[10]; [11],5%
same,plant injury at 62 g/ha,"[10]; post-emergence, Postemergence",15%
same,plant injury at 125 g/ha,"[10]; post-emergence, Postemergence",35%
same,plant injury at 16 g/ha,"[10]; pre-emergence, Preemergence",15%
same,plant injury at 62 g/ha,"[10]; pre-emergence, Preemergence",25%
same,plant injury at 125 g/ha,"[10]; pre-emergence, Preemergence",30%
